The source of these data is patent US20100292316A1, “IMPROVED THERAPEUTIC METHODS AND COMPOSITIONS COMPRISING CHROMAN RING COMPOUNDS” (Research Development Foundation, priority 2007, published 2010).

One test deals with FlipL. Put plainly: FlipL protein level by immunoblot. The format is cell-based, human. The note with it: LNCaP and PC-3-GFP cells, 40 μM α-TEA, time-dependent. An excerpt: Antibodies to human Flip and survivin used in these experiments were purchased from Santa Cruz Biotechnology (Santa Cruz, Calif.).
The subject of a further test is NOXA. Put plainly: NOXA mRNA (RT-PCR) and protein (Western blot) levels. Format: cell-based, human. Particulars: for peak NOXA mRNA levels, fold higher than VEH control / NOXA protein levels, fold higher than VEH control: 40 μM α-TEA; for NOXA protein levels, fold higher than VEH control: 24 h. On the procedure: (§1) Whole-cell protein extracts were prepared as described previously (Yu et al., 1999), and 50 μg of protein was loaded per lane, separated using SDS-PAGE on a 10-15% gel under reducing conditions, and electroblotted onto a nitrocellulose membrane ([…] Optitran BA-S-supported nitrocellulose; Schleicher and Schuell, Keene, N.H.). Equal loading was verified using GAPDH antibody. Primary rabbit antibodies with specificity for PARP and primary goat antibody with specificity for Arg were purchased from Santa Cruz Biotechnology (Santa Cruz, Calif.). Horseradish peroxidase conjugated goat anti-rabbit or horseradish goat anti-mouse secondary antibody was purchased from Jackson Immunoresearch Laboratory (West Grove, Pa.). Horseradish peroxidase-conjugated donkey anti-goat serum was purchased from Santa Cruz Biotechnology. Immune complexes were visualized using enhanced chemiluminescence detection (Pierce Chemical Co., Rockford, Ill.). Fold differences in level of chemiluminescence were determined by densitometric analyses.
(§2) Total RNA was isolated from cells using RNeasy Protect Mini kit (Qiagen, Valencia, Calif.) according to manufacturer's instruction. Reverse transcription was performed as described above except using 15 μg of total RNA as template. Polymerase chain reaction (PCR) with Arg primers 30 cycles in volumes of 50 μl according to the manufacturer's protocol (Taq PCR Master Mix Kit; Qiagen, Valencia, Calif.). Primers used in the analyses were: Arg, forward (5′-CAGTGATGCCTCCACCTCAA-3′; SEQ ID NO:2) and reverse (5′-TTTCCCTCTCCCCTCAGAAAT-3′; SEQ ID NO:3) and for β-actin (loading control), forward (5′-GGCGGCACCACCATGTACCCT-3′; SEQ ID NO:4) and reverse (5′-AGGGGCCGGACTCGTCATACT-3′; SEQ ID NO:5) (Invitrogen, Carlsbad, Calif.). The amplification reaction involved denaturation at 95° C. for 30 seconds, annealing at 52° C. for 30 seconds, and extension at 72° C. for 30 seconds (for Arg) using a PTC-225 thermal cycler (MJ Research, San Francisco, Calif.). The PCR products were resolved on 1% agarose gels and visualized by ethidium bromide staining.
To confirm the microarray data, semi-quantative RT-PCR and Western blot analyses were carried out to measure the change in mRNA and protein level of NOXA using estrogen nonresponsive MDA-MB-435 and estrogen responsive MCF-7 human breast cancer cells. Assays were preformed as describide above using NOXA specific antibodies (purchased from Santa Cruz Biotechnology (Santa Cruz, Calif.)) and NOXA sepcific PCR primers (forward (5′-CGTGTGTAGTTGGCATCTCC-3′) and reverse (5′-GCCCCAAGTAACCCTCCTAT-3′)). In MCF-7 cells, α-TEA induced NOXA mRNA starting at 3 h, peaking at 15 h (FIG. 9A, left top panel). In MDA-MB-435 cells, α-TEA induced NOXA mRNA starting at 3 h, peaking at 6 h (FIG. 9A, right top panel). In both cell lines, protein levels of NOXA were increased at 15 and 24 h after α-TEA treatments (FIG. 9C, top panel). […] In MCF-7 cells, peak NOXA mRNA levels at 15 h were 1.5-fold higher than the VEH control and NOXA protein levels at 24 h were 7.6-fold higher than the VEH control. Upregulation of NOXA protein levels is correlated with PARP cleavage which is an indicator of cells undergoing apoptosis (Wolf and Green, 1999) (FIG. 9C, second panel). GAPDH levels served to help verify lane loads (FIG. 9C, bottom panel). […] NOXA protein levels were also assessed in other cell lines including MDA-MB-231 and T47D human breast cancer cell lines, immortalized, but nontumorigenic MCF-10A breast epithelial cells as well as human normal mammary epithelial cell line (HMEC) (Table 3). The ability of α-TEA to induce NOXA and induce apoptosis plus the p53 status based on the literature is summarized (Table 3).

A further test concerns TSP-1. Put plainly: TSP-1 mRNA (RT-PCR) and protein (Western blot) levels in human breast cancer cells. The format is cell-based. Particulars: 40 μM α-TEA; for peak TSP-1 mRNA levels, fold of VEH control: 6 h. The method, then:
as §1, §2
Western blot analyses with a primary mouse antibody (Calbiochem (San Diego, Calif.)) was used to determine protein levels in treated versus untreated MDA-MB-435 and MCF-7 human breast cancer cells (FIG. 2B). […] 66c1-4-GFP cells are a mouse mammary tumor cell line originally derived from a spontaneous mammary tumor in a Balb/cfC3H mouse and later isolated as a 6-thioguanine-resistant clone. The cells were subsequently stably transfected with the enhanced GFP (Lawson et al., 2003). […] In MCF-7 cells, peak TSP-1 mRNA levels at 6 h were 1.3-fold of the VEH control and peak TSP-1 protein levels at 24 h were 2.4-fold of the VEH control. […]
On the technique in general: A western blot detects proteins with antibodies after separation by electrophoresis.

With `Cc1c(C)c2c(c(C)c1OCC(=O)O)CC[C@@](C)(CCC[C@H](C)CCC[C@H](C)CCCC(C)C)O2` [α-TEA], the “protein levels of FlipL” value in the test on FlipL was “downregulated”. The “Ability of α-TEA to induce NOXA expression” value in the test on NOXA (HMEC) is listed as “No”; in the test with NOXA (MCF-7), “Yes”; in the test with NOXA (MCF-10A) it was “Yes”; in the test on NOXA (MDA-MB-231), “Yes”; in the test on NOXA (MDA-MB-435) it was “Yes”; in the test with NOXA (T47D) it was “No”. In addition, the “peak NOXA mRNA levels, fold higher than VEH control” value in the test with NOXA (MCF-7 cells, 15 h) turned out to be 1.5 fold; with NOXA (MDA-MB-435 cells, 6 h), 2.6 fold. Moreover, the “NOXA protein levels, fold higher than VEH control” value in the test on NOXA (MCF-7 cells) worked out at 7.6 fold; with NOXA (MDA-MB-435 cells), 16.8 fold. For the same molecule, the “peak TSP-1 mRNA levels, fold of VEH control” value is 1.3 fold in the test on TSP-1 (MCF-7 cells) and 1.8 fold in the test with TSP-1 (MDA-MB-435 cells). In addition, the “peak TSP-1 protein levels, fold of VEH control” value with TSP-1 (MCF-7 cells, 24 h) was determined as 2.4 fold; in the test with TSP-1 (MDA-MB-435 cells, 15 h) it was 4.7 fold.
